Assay [1] relates to MOLM-13 cells. The experiment in a line: Co-treatment combination screen, synergy score, ATPlite. In kind it is cell-based, human. To be noted: simultaneous combination treatment, 72 hours. The method, then: (§1) The combination screen was performed using the co-treatment dosing schedule for SRA141 and the partner compound. Both enhancee (SRA141) and enhancer (partner compound) were added at time zero (0 h). Cells were exposed to SRA141 and the enhancer for the entire 72-hour treatment time. All data points were collected via automated processes and were subject to quality control and analyzed using proprietary software.
(§2) The Growth Inhibition (GI) was utilized as a measure of cell growth. GI percentages are calculated by applying the following test and equation: […]
(§3) This formula is derived from the Growth Inhibition calculation used in the National Cancer Institute's NCI-60 high throughput screen. […] These GI calculations were used in all single agent and combination data analysis for the combination screen.
(§4) To measure combination effects in excess of Loewe additivity, a scalar measure was used to characterize the strength of synergistic interaction termed the Synergy Score. The Synergy Score is calculated as: Synergy Score=log fX log fYΣ max(0,Idata)(Idata−ILoewe)
(§5) The fractional inhibition for each component agent and combination point in the matrix is calculated relative to the median of all vehicle-treated control wells. The Synergy Score equation integrates the experimentally-observed activity volume at each point in the matrix in excess of a model surface numerically derived from the activity of the component agents using the Loewe model for additivity. Additional terms in the Synergy Score equation (above) are used to normalize for various dilution factors used for individual agents and to allow for comparison of synergy scores across an entire experiment. The inclusion of positive inhibition gating or an Idata multiplier removes noise near the zero effect level, and biases results for synergistic interactions at that occur at high activity levels. Combinations with higher maximum Growth Inhibition (GI) effects or those which are synergistic at low concentrations will have higher Synergy Scores. Those combinations with Synergy Scores that statistically supersede baseline self-cross values can be considered synergistic. The magnitude of GI effects may be linked to the growth rate of cells which varies for each cell line examined.
(§6) Loewe Volume Score is used to assess the overall magnitude of the combination interaction in excess of the Loewe additivity model. Loewe Volume is particularly useful when distinguishing synergistic increases in a phenotypic activity (positive Loewe Volume) versus synergistic antagonisms (negative Loewe Volume).
On the technique in general: Cellular ATP, detected with luciferase, serves as a proxy for viable cell number.

For the next assay, the system named is MOLM-13. The experiment in a line: Combination of SRA141 with targeted agents, CTG and CTBlue, 72 hours, Bliss CI. In kind it is cell-based. The settings on record: for combination effect with SRA141: MOLM-13, 72 hours. As for the experimental part:
The anti-apoptotic gene BCL-2 was inhibited in Molm-13 cells by treatment with 0.1 μM ABT-199 as previously described (see Examples 6 and 24). Cells were treated with 0.1 μM ABT-199 and SRA141 for 72 hours at SRA141 concentrations of 0.04 μM to 3.30 μM.

Assay [2] concerns MOLM-13 cells. The experiment in a line: Sequential treatment: SRA141 pre-treatment then partner agent, ATPlite. In kind it is cell-based, human. The settings on record: 200 nM SRA141 pre-treatment 48 hrs compared to DMSO pre-treatment.
Description: Flasks of MOLM-13 cells were pre-treated with SRA141 (1 μM and 200 nM) and DMSO control for 48 hrs; cells were washed and seeded into 384-well plates; plates left to incubate for 6 hrs, followed by treatment with trametinib or bexarotene six hours after plating as single agents. After 72 hrs, ATP levels were measured using ATPlite.
The test system of a further assay is Colo-205. Nature of the assay: Combination of SRA141 with targeted agents, CTG and CTBlue, 72 hours, Bliss CI. To be noted: Colo-205, 72 hours.
The subject of another assay is EOL-1. Nature of the assay: AML 3D culture, 5 days. In kind it is cell-based. To be noted: EOL-1 cell line. As for the experimental part: (§7) The activity of SRA141 was investigated in in vitro and ex vivo three-dimensional (3D) cultures prepared from three AML cell lines (EOL-1, Molm-16 and MV-4-11) and three AML PDX models (AM5512, AM7440 and AM7577), respectively. Tumor cultures were treated with SRA141 (0.08 to 33 μM) for 5 days.

In a further assay the test system is MV-4-11. The experiment in a line: AML 3D culture, 5 days. In kind it is cell-based. The settings on record: MV-4-11 cell line. The method, then:
as §7

The test system of the next assay is Molm-16. Nature of the assay: AML 3D culture, 5 days. The format is cell-based. The settings on record: Molm-16 cell line. As for the experimental part:
as §7

A further assay deals with AM5512. The experiment in a line: AML PDX ex vivo 3D culture, 5 days. The format is cell-based. The method, then:
as §7

The subject of a further assay is AM7440. Nature of the assay: AML PDX ex vivo 3D culture, 5 days. In kind it is cell-based. The method, then: as §7
A further assay has as its system AM7577. Nature of the assay: AML PDX ex vivo 3D culture, 5 days. In kind it is cell-based. The method, then:
as §7

In a further assay the test system is COLO-205 cells. The experiment in a line: Co-treatment combination screen, synergy score, ATPlite. The settings on record: simultaneous combination treatment, 72 hours. In kind it is cell-based, human. The method, then:
as §1, §2, §3, §4, §5, §6

For the next assay, the system named is SW620. The experiment in a line: Combination of SRA141 with targeted agents, CTG and CTBlue, 72 hours, Bliss CI. To be noted: SW620, 72 hours.
A further assay deals with MV411. Described as above. To be noted: MV411, 72 hours.
The next assay has as its system AML-blast progenitors. Nature of the assay: 3D growth in methylcellulose matrix, 14 days. In kind it is cell-based. As for the experimental part: (§8) The anti-proliferative activity of SRA141 (0.3-5 μM) was also evaluated in additional 3D growth studies conducted in a methylcellulose growth matrix using normal human myeloid (n=3) and AML-blast progenitors incubated for 14 days.

Assay [3] concerns normal human myeloid progenitors (normal bone marrow). The experiment in a line: 3D growth in methylcellulose matrix, 14 days. The format is cell-based. The method, then:
as §8

The test system of assay [4] is Colo-205 colorectal adenocarcinoma cells. Nature of the assay: Sequential treatment: SRA141 pre-treatment then partner agent, ATPlite. In kind it is cell-based, human.

Where two headings read alike, the source gives them in different places.

`CC1(C)CCC(CN2CCN(c3ccc(C(=O)NS(=O)(=O)c4ccc(NCC5CCOCC5)c([N+](=O)[O-])c4)c(Oc4cnc5[nH]ccc5c4)c3)CC2)=C(c2ccc(Cl)cc2)C1` [ABT-199]: the “synergy with SRA141” value in the assay on MOLM-13 cells [1] is given as “strong synergies”. The “Combination Index” value with MOLM-13 (0.1 μM ABT-199 with SRA141 at 0.12, 0.37, 1.10 and 3.30 μM, 72 hours) is reported as “less than 1”. Moreover, the “combination effect with SRA141” value with MOLM-13 is given as “act synergistically”.

For `Cn1ncnc1[C@H]1c2n[nH]c(=O)c3cc(F)cc(c23)N[C@@H]1c1ccc(F)cc1` [BMN673], the “synergy with SRA141” value in the assay on MOLM-13 cells [1] is reported as “strong synergies”.

Regarding `C=C(c1ccc(C(=O)O)cc1)c1cc2c(cc1C)C(C)(C)CCC2(C)C` [Bexarotene], the “EC50 fold change of partner agent” value with MOLM-13 cells [2] came to 2.63. The “synergy with SRA141” value in the assay on MOLM-13 cells [1] was “strong synergies”. Moreover, the “combination effect with SRA141” value is recorded as “slight additive effects” in the assay on MOLM-13 and “antagonistic effect” with Colo-205.

For `N.N.[Cl][Pt][Cl]` [Cisplatin], the IC50 worked out at 640 nM in the assay with EOL-1; 620 nM in the assay on MV-4-11; 380 nM with Molm-16; 11900 nM in the assay on AM5512; 1340 nM with AM7440; 4180 nM in the assay on AM7577.

For the molecule `COc1c(OCCCN2CCOCC2)ccc2c1N=C(NC(=O)c1cnc(N)nc1)N1CCN=C21` [Copanlisib], the “synergy with SRA141” value with COLO-205 cells is “Strong synergies”. Moreover, the “combination effect with SRA141” value with MOLM-13 is given as “slight additive effects”; with Colo-205, “slight additive effect”; with SW620, “slight additive effects”; in the assay on MV411, “slight additive effects”.

Consider `Nc1ccn([C@@H]2O[C@H](CO)[C@@H](O)[C@@H]2O)c(=O)n1` [Cytarabine, cytosine arabinoside, reference compound], for which the IC50 in the assay with EOL-1 (Homo sapiens, EOL1) is 2 nM; in the assay with MV-4-11 (Homo sapiens, MV4-11) it was 50 nM; in the assay with Molm-16 (MOLM16), 70 nM; in the assay on AM5512, 8890 nM; with AM7440, 270 nM; with AML-blast progenitors (AML810 censored, read-out: mean IC50, AML samples), around 4 nM. Also, the IC50 with AML-blast progenitors (AML-blast progenitor 180, read-out: IC50) is 3.6 nM; in the assay on AML-blast progenitors (AML-blast progenitor 190, read-out: IC50), 6.1 nM; in the assay on AML-blast progenitors (AML-blast progenitor 200, read-out: IC50), 2.8 nM; with AML-blast progenitors (AML-blast progenitor 250, read-out: IC50), 2.2 nM; with AML-blast progenitors (AML-blast progenitor 260, read-out: IC50) it was 3 nM; in the assay on AML-blast progenitors (AML-blast progenitor 717, read-out: IC50), 3.8 nM. The IC50 was found to be 9.6 nM in the assay with AML-blast progenitors (AML-blast progenitor 810 (sample censored), read-out: IC50); 8.1 nM in the assay on AML-blast progenitors (AML-blast progenitor 915, read-out: IC50); 5.7 nM with AML-blast progenitors (AML-blast progenitor 917, read-out: IC50); 5 ± 2.6 nM in the assay on AML-blast progenitors (with AML 810, read-out: Mean AML-blast progenitor IC50 (with AML 810)); 4.4 ± 2 nM in the assay on AML-blast progenitors (without AML 810, read-out: Mean AML-blast progenitor IC50 (without AML 810)); 4.8 nM in assay [3] (Normal bone marrow 111, read-out: IC50). For the same molecule, the IC50 is 3.7 nM in assay [3] (Normal bone marrow 525 (first line), read-out: IC50); 3.8 nM in assay [3] (Normal bone marrow 525 (second line), read-out: IC50); 4.1 ± 0.6 nM in [3] (mean of 3 samples, read-out: Mean normal bone marrow IC50); around 4 nM in assay [3] (read-out: mean IC50, normal bone marrow preparations). For the same molecule, the “primary AML samples responding with a Therapeutic Index [(Primary AML IC50)÷(BMNC control IC50)]” value with AML-blast progenitors (9 primary AML samples) was 2 out of 9.

As to `CC(=O)Nc1cccc(-n2c(=O)n(C3CC3)c(=O)c3c(Nc4ccc(I)cc4F)n(C)c(=O)c(C)c32)c1` [Trametinib], the “EC50 fold change of partner agent” value in the assay with MOLM-13 cells [2] is reported as 2.63.

On to `CC1=C(/C=C/C(C)=C/C=C/C(C)=C/C(=O)O)C(C)(C)CCC1` [Tretinoin], for which the “combination effect with SRA141” value with MOLM-13 and in the assay with MV411 was “slight additive effects” in each case.

For the molecule `C[C@@]1(CO)[C@H](O)CC[C@@]2(C)[C@H]1CC[C@H]1C[C@@H]3C[C@@]12CC[C@]3(O)CO` [aphidicolin], in assay [4] (1 μM SRA141 pre-treatment 48 hrs compared to DMSO pre-treatment), the “EC50 fold change of partner agent” value came out at 4.60.

`CO[C@H]1C[C@@H]2CC[C@@H](C)[C@@](O)(O2)C(=O)C(=O)N2CCCC[C@H]2C(=O)O[C@H]([C@H](C)C[C@@H]2CC[C@@H](OCCO)[C@H](OC)C2)CC(=O)[C@H](C)/C=C(\C)[C@@H](O)[C@@H](OC)C(=O)[C@H](C)C[C@H](C)/C=C/C=C/C=C/1C` [everolimus]: the entries for the “EC50 fold change of partner agent” value (in assay [4] (200 nM SRA141 pre-treatment 48 hrs compared to DMSO pre-treatment); with MOLM-13 cells [2]) were 3.3 and 3.25, respectively.

The values above are taken from patent US12533353B2, “Methods of treatment of cancer comprising CDC7 inhibitors” (CARNA BIOSCIENCES, INC., priority 2018, dated 2026).
